Values quoted from earlier work as cited in patent publication US9534000B2, “Cytotoxic benzodiazepine derivatives and methods of preparation” (ImmunoGen, Inc., priority 2011, dated 2017).

Conditions: Phase I clinical evaluation

C=C1C[C@H]2C=Nc3cc(OCCCOc4cc5c(cc4OC)C(=O)N4CC(=C)C[C@H]4C=N5)c(OC)cc3C(=O)N2C1 [SJG-136]
DNA damage in circulating lymphocytes: noted at all doses
